Experimental data from article PMC8652888, “Angiogenesis, Anti-Tumor, and Anti-Metastatic Activity of Novel α-Substituted Hetero-Aromatic Chalcone Hybrids as Inhibitors of Microtubule Polymerization” (Frontiers in Chemistry, 2021).
Read-outs that look alike come from different tables or passages of the source.

Experiments:
U937 = assay: Antiproliferative activity, CCK-8 assay; format: cell-based; conditions: Homo sapiens, U-937
Experimental: (§1) The synthesized compounds were first evaluated for their cytotoxic effect on MCF-7 (human breast adenocarcinoma), U937 (histiocytic lymphoma cancer), HepG2 (human liver cancer) cells, and MGC-803 (human gastric cancer) using the SRB and CCK-8 assay. As reference compounds CA-4 and colchicine were included.
(§2) The primary tumor cells were purchased from a professional biomedical company. First, the primary tumor cells were incubated in a cell culture incubator at 37°C and 5% CO2. After the cell fusion reached 85%–95%, subculture was performed, and the tumor cells obtained at this time were used for subsequent related experiments. The CCK-8 method was used to inhibit the proliferation of U937 tumor cells, and the SRB method was used to inhibit the proliferation of MCF7 and HepG2 tumor cells.
The cells in the logarithmic growth phase were seeded in a 96-well plate at 8,000/well, and the drug-containing medium and cell suspension were added to the well. Three wells were added with the blank medium as the blank group. The 96-well plate was incubated for 72 h in a 37°C, 5% CO2 incubator. The 10 μl of CCK-8 dye solution was added to each well, and the incubation continued for 3–4 h.

MCF-7 = assay: Antiproliferative activity, SRB assay; format: cell-based, human; conditions: Homo sapiens;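 further: proliferation of MCF7 cells quantified by sulforhodamine B staining, with optical density read at 560 nm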
HepG2 = assay: Antiproliferative activity, SRB assay; format: cell-based, human; conditions: Homo sapiens, HepG2; 72 h, triplicate, mean ± SD; read-out: IC50 ± SD, HepG2
Experimental: as §1, §2
Cells were distributed into 96-well plates with a density of 3 × 10^3–4 × 10^3 cells per well and incubated for 24 h in a 5% CO2 incubator at 37°C, followed by treatment with study compounds at different concentrations at 37°C for 72 h. One hundred microliters of 10% (w/v) trichloroacetic acid was added to each well, fixed at 4°C for 30 min, and dried at 65°C. Then 100 μl of 0.4% SRB was added to each well and stained on a shaker for 20 min at room temperature. The excess dye solution was washed with newly prepared 1% glacial acetic acid and dried at 65°C. One hundred fifty microliters of 10 mM unbuffered Trisbase was added to each well of the plate and shaken for 5 min to dissolve the dye. The microplate reader measured the optical density (OD) at a wavelength of 560 nm.

MGC-803 = assay: Antiproliferative activity (SRB and CCK-8 assay); format: cell-based; conditions: Homo sapiens
Description: as §1

[1] = 72 h, triplicate, mean ± SD, read-out: IC50 ± SD, U937
[2] = MCF7, 72 h, 72 h, triplicate, mean ± SD, read-out: IC50 ± SD, MCF-7
[3] = MCF7, supplement raw data, read-out: IC50/MCF
[4] = supplement raw data, read-out: IC50/MGC
[5] = triplicate, mean ± SD, read-out: IC50 ± SD, MGC-803
[6] = supplement raw data, read-out: IC50/U937
[7] = supplement raw data of table 2, read-out: IC50(U937)

IC50 (U937; [1])	IC50 (MCF-7; [2])	IC50 (MCF-7; [3])	IC50 (HepG2)	IC50 (MGC-803; [4])	IC50 (MGC-803; [5])	melting point	IC50 (U937; [6])	IC50 (U937; [7])	SMILES
> 20000 nM	> 20000 nM	–	> 20000 nM	–	–	169.7 to 172.1 °C	–	–	COc1cc(C(=O)/C(C#N)=C/c2ccc3occc3c2)cc(OC)c1OC [Compound 8m, (E)-3-(benzofuran-5-yl)-2-(3,4,5-trimethoxybenzoyl)acrylonitrile]
> 20000 nM	14740 ± 141 nM	–	1701 ± 13 nM	–	–	187.5 to 189.3 °C	–	–	COc1cc(C(=O)/C(C#N)=C/c2cc3ccccc3s2)cc(OC)c1OC [Compound 8o, (E)-3-[benzo(b)thiophen-2-yl]-2-(3,4,5-trimethoxybenzoyl)acrylonitrile]
> 20000 nM	> 20000 nM	–	> 20000 nM	–	–	201.8 to 203.1 °C	–	–	COc1cc(C(=O)/C(C#N)=C/c2csc3ccccc23)cc(OC)c1OC [Compound 8p, (E)-3-[benzo(b)thiophen-3-yl]-2-(3,4,5-trimethoxybenzoyl)acrylonitrile]
52300 ± 3660 nM	> 20000 nM	–	> 20000 nM	–	–	199.7 to 201.1 °C	–	52300 nM	COc1cc(C(=O)/C(C#N)=C/c2ccc3sc4ccccc4c3c2)cc(OC)c1OC [Compound 8q, (E)-3-[dibenzo (b,d)thiophen-2-yl]-2-(3,4,5-trimethoxybenzoyl)acrylonitrile]
24900 ± 2020 nM	> 20000 nM	–	> 20000 nM	–	–	201.8 to 203.1 °C	–	24900 nM	COc1cc(C(=O)/C(C#N)=C/c2nc3ccccc3n2C)cc(OC)c1OC [Compound 8r, (E)-3-[1-methyl-1H-benzo (d)imidazol-2-yl]-2-(3,4,5-trimethoxybenzoyl)acrylonitrile]
> 20000 nM	> 20000 nM	–	> 20000 nM	–	–	176.3 to 177.8 °C	–	–	COc1cc(C(=O)/C(C#N)=C/c2cccc3c2OCO3)cc(OC)c1OC [Compound 8s, (E)-3-[benzo(d)(1,3)dioxol-4-yl]-2-(3,4,5-trimethoxybenzoyl)acrylonitrile]
> 20000 nM	> 20000 nM	–	> 20000 nM	–	–	207.1 to 209 °C	–	–	COc1cc(C(=O)/C(C#N)=C/c2cc3c(cc2Br)OCO3)cc(OC)c1OC [Compound 8t, (E)-3-[6-bromobenzo(d)(1,3)dioxol-5-yl]-2-(3,4,5-trimethoxybenzoyl)acrylonitrile]

The next lines start with the molecule.

SMILES	IC50 (U937; [1])	IC50 (MCF-7; [2])	IC50 (MCF-7; [3])	IC50 (HepG2)	IC50 (MGC-803; [4])	IC50 (MGC-803; [5])	melting point	IC50 (U937; [6])	IC50 (U937; [7])
COc1cc(C(=O)/C=C/c2c(C)[nH]c3ccccc23)cc(OC)c1OC [Compound 6b, (E)-3-(2-methyl-1H-indol-3-yl)-1-(3,4,5-trimethoxyphenyl)prop-2-en-1-one]	> 20000 nM	281 ± 22 nM	281 nM	14110 ± 117 nM	190 nM	190 ± 2 nM	236.7 to 238.2 °C	–	–
COc1cc(C(=O)/C=C/c2c(-c3ccccc3)[nH]c3ccccc23)cc(OC)c1OC [Compound 6c, (E)-3-(2-phenyl-1H-indol-3-yl)-1-(3,4,5-trimethoxyphenyl)prop-2-en-1-one]	601 ± 267 nM	313 ± 17 nM	313 nM	1080 ± 92 nM	–	104 ± 1 nM	60.2 to 61.7 °C	601 nM	–
COc1cc(C(=O)/C=C/c2c[nH]c3cc(Br)ccc23)cc(OC)c1OC [Compound 6g, (E)-3-(6-bromo-1H-indol-3-yl)-1-(3,4,5-trimethoxyphenyl)prop-2-en-1-one]	> 20000 nM	380 ± 20 nM	380 nM	18100 ± 295 nM	70.6 nM	71 ± 2 nM	216.4 to 217.6 °C	–	–
COc1cc(C(=O)/C=C/c2cc3ccccc3o2)cc(OC)c1OC [Compound 6h, (E)-3-(benzofuran-2-yl)-1-(3,4,5-trimethoxyphenyl)prop-2-en-1-one]	> 20000 nM	14600 ± 368 nM	–	> 20000 nM	–	8780 ± 309 nM	79.5 to 80.3 °C	–	–
COc1cc(C(=O)/C=C/c2coc3ccccc23)cc(OC)c1OC [Compound 6j, (E)-3-(benzofuran-3-yl)-1-(3,4,5-trimethoxyphenyl)prop-2-en-1-one]	786 ± 346 nM	988 ± 6 nM	988 nM	4820 ± 102 nM	395 nM	395 ± 15 nM	117.5 to 120.8 °C	786 nM	–
COc1cc(C(=O)/C=C/c2ccc3oc4ccccc4c3c2)cc(OC)c1OC [Compound 6l, (E)-3-[dibenzo (b,d)furan-2-yl]1-(3,4,5-trimethoxyphenyl)prop-2-en-1-one]	2080 ± 252 nM	810 ± 68 nM	810 nM	3270 ± 65 nM	326 nM	326 ± 16 nM	56.5 to 57.6 °C	–	–
COc1cc(C(=O)/C=C/c2ccc3occc3c2)cc(OC)c1OC [Compound 6m, (E)-3-(benzofuran-5-yl)-1-(3,4,5-trimethoxyphenyl)prop-2-en-1-one]	6170 ± 1640 nM	6460 ± 103 nM	–	> 20000 nM	–	3180 ± 62 nM	110.5 to 115.3 °C	–	–
COc1cc(C(=O)/C=C/c2ccc3c(c2)CCO3)cc(OC)c1OC [Compound 6n, (E)-3-(2,3-dihydrobenzofuran-5-yl)-1-(3,4,5-trimethoxyphenyl)prop-2-en-1-one]	> 20000 nM	3130 ± 415 nM	–	> 20000 nM	851 nM	851 ± 63 nM	107.5 to 110.3 °C	–	–
COc1cc(C(=O)/C=C/c2cc3ccccc3s2)cc(OC)c1OC [Compound 6o, (E)-3-(benzo[b]thiophen-2-yl)-1-(3,4,5-trimethoxyphenyl)prop-2-en-1-one]	> 20000 nM	2070 ± 43 nM	–	8380 ± 585 nM	–	1380 ± 86 nM	115.5 to 116.9 °C	–	–
COc1cc(C(=O)/C=C/c2csc3ccccc23)cc(OC)c1OC [Compound 6p, (E)-3-(benzo[b]thiophen-3-yl)-1-(3,4,5-trimethoxyphenyl)prop-2-en-1-one]	> 20000 nM	283 ± 11 nM	283 nM	1380 ± 136 nM	75.7 nM	76 ± 1 nM	95.5 to 96.4 °C	–	–
COc1cc(C(=O)/C=C/c2ccc3sc4ccccc4c3c2)cc(OC)c1OC [Compound 6q, (E)-3[dibenzo (b,d)thiophen-2-yl]-1-(3,4,5-trimethoxyphenyl)prop-2-en-1-one]	6380 ± 148 nM	5090 ± 569 nM	–	10600 ± 457 nM	–	3220 ± 284 nM	118.7 to 119.2 °C	–	–
COc1cc(C(=O)/C=C/c2nc3ccccc3n2C)cc(OC)c1OC [Compound 6r, (E)-3-[1-methyl-1H-benzo (d)imidazol-2-yl]-1-(3,4,5-trimethoxyphenyl)prop-2-en-1-one]	1280 ± 71 nM	5190 ± 465 nM	–	4670 ± 295 nM	–	2030 ± 225 nM	123.5 to 125.2 °C	–	–
COc1cc(C(=O)/C=C/c2cccc3c2OCO3)cc(OC)c1OC [Compound 6s, (E)-3-(benzo[d][1,3]dioxol-4-yl)-1-(3,4,5-trimethoxyphenyl)prop-2-en-1-one]	> 20000 nM	1230 ± 133 nM	–	3320 ± 229 nM	393 nM	393 ± 17 nM	138.4 to 140.3 °C	–	–
